From paper PMC10788915, “Fragment Merging, Growing, and Linking Identify New Trypanothione Reductase Inhibitors for Leishmaniasis” (Journal of Medicinal Chemistry, 2024)

Columns and labels:
[1] = system: L. infantum axenic amastigotes; test: In vitro inhibition of axenic amastigote growth (MTT); format: cell-based, Leishmania infantum; details: Leishmania infantum, 72 h, read-out: axenic amastigote EC50 ± SE (95% CI)
Procedure: Axenic amastigote growth inhibition was evaluated using L. infantum strain (MHOM/TN/80/IPT1, WHO international reference strain). Axenic amastigote cultures were obtained as described previously with modifications.[45] Promastigotes were grown in Schneider’s Drosophila medium (SIGMA) containing 10% heat-inactivated fetal calf serum (FCS)(GIBCO-BRL) and 2% gentamicin (50 mg/L)(Sigma) in 25 cm^2 flasks at 22 °C. After 4–5 days, the parasites were adjusted to 1 × 10^6 parasites/mL in axenic medium MAA/20 consisting of modified medium 199 (Gibco BRL) with Hanks’ salts supplemented with 0.5% tryptic soy broth (Sigma), 0.01 mM bathocuproine disulfonic acid, 3 mM L-cysteine, 15 mM D-glucose, 5 mM L-glutamine, 4 mM NaHCO3, 0.023 mM bovine hemin, and 25 mM HEPES to a final pH of 6.5 and supplemented with 20% pretested FCS, and axenic amastigotes were obtained by shifting the incubation conditions: 198 μL of suspension was seeded in triplicate in 96-well flat bottom microplates and incubated at 37 °C, 5% CO2 for 48 h in order to allow the axenization. The amastigote cells were visualized under the light microscope to confirm transformation. Then, 2 μL of the selected compounds with varying concentrations were added: 100, 50, 25, 12.5, 6.25, 3.12, 1.56, 0.8, 0.4, 0.2, 0.1, 0.05 μM. […] Each experiment was conducted in triplicate for each drug concentration, and three independent experiments were performed. To estimate the 50% inhibitory concentration (IC50), the (3-[4.5-dimethylthiazol-2-yl]-2.5-diphenyltetrazolium bromide) (MTT) micromethod was used throughout the experiments with modification. After 72 h of incubation, 30 μL of MTT was added to each well, and the plates were further incubated for 3 h. The absorbance at 550 nm was measured with a 96-well scanner. Antileishmanial activity was expressed as the percentage of inhibition in the number of live parasites compared to that in the control (nontreated parasites). % inhibition was calculated as follows: % growth inhibition = [(absorb cell with drug × 100)/absorb cell control] – 100. Results were analyzed by GraphPad Prism 5.0, dose–response curves were obtained and IC50 deduced (GraphPad Software Inc., San Diego, USA).

[2] = Cytotoxicity assay on human THP-1-derived macrophages (MTT); format: cell-based; details: human, THP-1 cells differentiated into macrophages with PMA, 72 h, MTT; read-out: human THP-1-derived macrophage CC50 ± SE (95% CI)
Procedure: (§1) To assess the cytotoxicity of compounds on mammalian macrophages, we tested all the compounds against both human leukemia monocyte cell line (THP-1 cells, ATCC) differentiated into macrophages by treatment with 40 ng/mL of phorbol myristate acetate (PMA; Sigma) for 48 h and peritoneal exudate macrophages harvested from Balb/c mice. […] Cell viability was evaluated using the MTT assay, and the concentration of the compound that produced a 50% reduction of cell viability in treated culture cells with respect to untreated ones (CC50) was determined by GraphPad Prism 5.0 (GraphPad Software Inc., San Diego, USA). […] The selectivity index for each compound was calculated as the ratio of cytotoxicity (CC50) in macrophages cells to activity (IC50) against Leishmania axenic amastigotes. The experiments were performed in triplicate, and two independent experiments were conducted.

[3] = system: human THP-1-derived macrophages; test: as above; format: cell-based
Procedure: as §1

[4] = Cytotoxicity assay on primary murine macrophages (MTT); format: cell-based, Balb/c mice; details: Balb/c, mouse, primary peritoneal exudate macrophages, read-out: primary murine macrophage CC50 ± SE (95% CI)
Procedure: as §1

[5] = system: L. infantum intramacrophage amastigotes; test: Ex vivo inhibition of intramacrophage amastigote growth; format: cell-based, Leishmania infantum; details: Leishmania infantum, Macrophage, in Mus musculus, 72 h, murine macrophages infected with L. infantum amastigotes, 72 h, read-out: intramacrophage amastigote EC50 ± SE (95% CI)
Procedure: Balb/c murine macrophages were used to perform ex vivo assay since the parasites infect them more effectively. Macrophages (5 × 10^5/well) were placed on glass coverslips within a 24-well culture plate and incubated with complete RPMI in a 5% CO2 incubator at 37 °C for 4 h to achieve cell adhesion. After this time, L. infantum amastigotes from spleens of previously infected hamsters were added onto the macrophages adhering to the coverslips at the ratio of 10:1 (parasites/macrophages). After 24 h of infection, the noninternalized amastigotes were removed by washes with RPMI. The infected macrophages were incubated with complete RPMI medium (control) or medium containing different concentrations of compounds in a 5% CO2 incubator at 37 °C for 72 h. Then, the coverslips were fixed with methanol, stained with Giemsa 10%, and analyzed by optical microscopy. The percentage of the infected macrophages and the number of amastigotes per infected macrophage were determined by random counting of 100 cells in each coverslip. Infection was judged to be adequate if more than 70% of the macrophages in the untreated control were infected. Activity for each compound was expressed as percentage of parasite burden reduction = infectivity index of treated cells/infectivity index of untreated cells. The infectivity index was calculated as follows: number of infected macrophages × mean number of amastigotes per macrophage / total number of macrophages. Nonlinear regression analysis (Graph-Pad Software Inc., San Diego, USA) was used for curve fitting and calculation of 50% inhibitory concentrations (IC50). The experiments were performed in triplicate, and two independent experiments were conducted.

[6] = system: L. infantum axenic amastigotes; details: stated for the control (Euroclone) in the axenic amastigote method; read-out: IC50 of the control drug; cited from earlier work

With `C[C@@H]1[C@H](O)[C@@H](C)/C=C/C=C/C=C/C=C/C=C/C=C/C=C/[C@H](O[C@@H]2O[C@H](C)[C@@H](O)[C@H](N)[C@@H]2O)C[C@@H]2O[C@](O)(C[C@@H](O)C[C@@H](O)[C@H](O)CC[C@@H](O)C[C@@H](O)CC(=O)O[C@H]1C)C[C@H](O)[C@H]2C(=O)O` [AmpB, Amphotericin B, reference compound] as the compound, how does the EC50 [1] read?
The EC50 was 800 ± 400 nM.

And the CC50 at 72 h [2]?
Its CC50 at 72 h is 21100 ± 3000 nM.

And the “SI = human THP-1-derived macrophage CC50/axenic amastigote EC50” value [3]?
Its value is 26.4.

What about the CC50 at 72 h [4] of the same compound?
Its CC50 at 72 h is 16700 ± 2050 nM.

What about the EC50 [5] of the same compound?
Its EC50 is 540 ± 300 nM.

What about the IC50 [6] of the same compound?
The IC50 was 500 nM.
